Paper PMC11436758, “Computer-aided drug design to generate a unique antibiotic family” (Nature Communications, 2024)
pIC50: −log10 of the molar value. Values after ≈ are worked out from the molar mass of the structure shown. Values joined by “and” are separate entries in the source; they are usually repeats but may differ in a detail not shown here. Identical values can stand only once.

Tests used:
[1] = system: MRSA (ATCC 33591); assay: MIC, CLSI broth microdilution; assay type: cell-based, S. aureus; conditions: three individual replicates
Method: The medium employed for the assay was Mueller Hinton II Broth (MHB II; Becton-Dickinson, Sparks, MD, USA). Agar plates used for the organisms were trypticase soy agar plus 5% sheep blood (BD; Sparks, MD, USA). MIC assay plates were prepared using the CLSI broth microdilution procedure. Automated liquid handlers (Multidrop 384, Biomek 2000 and Biomek FX) were used to conduct serial dilutions and liquid transfers. A standardized inoculum of each organism was prepared per CLSI methods. Suspensions were prepared to equal a 0.5 McFarland standard, followed by a 1:20 dilution in test media. The inocula were dispensed into sterile reservoirs divided by length (Beckman Colter) and the Biomek 2000 was used to inoculate the plates. Daughter plates were placed on the Biomek 2000 work surface in reverse orientation so that inoculation took place from low to high drug concentration. The Biomek 2000 delivered 10 μL of the diluted suspension into each well. These inoculations yielded a final cell concentration in the daughter plates of ~5 × 10^5 colony-forming units/mL in each well. The wells of the daughter plates ultimately contained 185 μL of broth, 5 μL of drug solution, and 10 μL of bacterial inoculum. Plates were covered with a sterile lid on the top plate, placed in plastic bags, and incubated at 35 °C for ~18 h. The microplates were viewed from the bottom using a plate viewer and the MIC was read. The MIC was recorded as the lowest concentration of drug that inhibited visible growth of the organism. Uninoculated solubility control plates were also observed for evidence of drug precipitation.

[2] = biological target: AcpS (Escherichia coli, UniProt P24224); assay: AcpS activity against increasing concentration of CoA with and without DNM0547 (mode of inhibition); assay type: biochemical; conditions: Suppl Fig 2, [AcpS] 5 nM; for V(+Inhibitor): replicates
AcpS, sequence (P24224 2-126): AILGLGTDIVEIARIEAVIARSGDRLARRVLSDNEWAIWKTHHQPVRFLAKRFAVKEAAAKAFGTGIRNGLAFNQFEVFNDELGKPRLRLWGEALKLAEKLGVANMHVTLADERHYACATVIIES
Excerpt: AcpS was chosen as a potential new antibiotic target for several important reasons beyond its high level of conservation across bacterial species. […] We undertook a more in-depth characterization of AcpS inhibition using DNM0547 as the test compound for this antibiotic family. The computer-aided drug design strategy used positions DNM compounds in the active site of AcpS. If DNM0547 is binding to the active site of AcpS competitive inhibition against an AcpS substrate would be predicted.
The acpS gene was amplified from S. aureus and E. coli genomic DNA and inserted into a pET23b vector using standard recombinant DNA methodology such that the protein product would result in addition of a C-terminal 6x-His tag in frame with the AcpS open reading frames. The DNA sequences inserted in the vector were sequenced and found to be identical to the known E. coli and S. aureus acpS open reading frames. Recombinant His-Tagged AcpS expression was induced by IPTG addition and overnight culture. Cell lysate was obtained by sequential aspiration through 16, 18 and 21 G needles in a buffer of 50 mM Tris-HCl (pH 8.5), 10 mM MgCl2, 2 mM DTT, 5% glycerol, and further adjusted to pH 8.1 with MES. […] In a typical AcpS enzyme activity assay, 57 µM [^3H]acetyl-CoA, 2 µg apo-ACP, 10 mM MgCl2, 5 mM DTT, 50 mM Na phosphate (pH 7.0), and AcpS in a final volume of 10 µL were incubated at room temperature in a 1.5 mL microcentrifuge tube. At 5, 10, 15, and 20 min 2 µL of reaction were added to 750 µl 10% TCA on ice. Bovine serum albumin (BSA; 20 µl of a 25 mg/mL solution) was then added to facilitate precipitation of radiolabeled protein. The samples were centrifuged at 12,000 × g for 5 min. Supernatants were removed, and the pellets were rinsed twice with 750 µl of 10% trichloroacetic acid. Pellets were resuspended in 50 µl of formic acid and transferred to scintillation vials. 2 mL of scintillation fluid was added, and the amount of [^3H]-labeled holo-ACP formed was quantified by liquid scintillation counting. The enzymatic reaction proceeded in a linear manner depending on time (10–40 min) and enzyme concentration (1–5 nM). Routinely, each data point was determined at least by triplicate.
Supplementary Figure 2. […] AcpS enzyme activity was […]
determined versus using purified AcpS and increasing concentrations of CoA in the presence and absence of 8 µM DNM0547. Data are the mean values +/ - SD of three separate experiments performed in triplicate from three separate enzyme preparation. GraphPad Prism was used to determine V max and Km values.

[3] = Histopathology (H&E) of treated rabbit ischemic ear wounds, dermal toxicity
Method: Wounds were excised, fixed, and routine H&E staining was performed. Wounds were examined for pathology and scored in a blinded manner.
Post-wounding, under anesthesia, animals were euthanized with an intravenous injection of Beuthanasia-D at a dosage of 150 mg/kg of body weight. Specimens including the entire wound, along with ~2–3 mm of the normal unwounded skin margins were harvested. Each ear wound specimen was sectioned into halves. For one half of the wound, the wound was placed into a container with 10% neutral buffered formalin and processed for routine histological evaluation. Wounds were scored on a scale of 0–4 at the wound site for erythema, edema, inflammation, granulation, angiogenesis, and epithelialization. Wounds were characterized in a blinded manner by a board-certified member of the College of American Pathologists.

[4] = biological target: T1, AcpS^H-/108A (Escherichia coli, UniProt P24224, H108A); assay: Inhibition of purified AcpS site-directed mutant by DNM0547; assay type: biochemical, E. coli; conditions: for AcpS rate nM/min, Mean / AcpS rate: Suppl Fig 3, [AcpS_H108A] 5nM; for AcpS rate: replicates
T1 construct: 6x-His (C); made in house
T1 sequence (P24224 whole entry H108A): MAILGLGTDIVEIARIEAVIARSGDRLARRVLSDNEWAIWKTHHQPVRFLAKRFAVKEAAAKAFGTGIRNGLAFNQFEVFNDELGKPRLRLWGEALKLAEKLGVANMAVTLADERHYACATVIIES

[5] = biological target: T2, wild-type AcpS (Escherichia coli, UniProt P24224); assay: Inhibition of purified wild-type AcpS by DNM0547; assay type: biochemical, E. coli; conditions: for AcpS rate nM/min, Mean / AcpS rate: Suppl Fig 3, [AcpS_WT] 5 nM; for AcpS rate: replicates
T2 construct: 6x-His (C); made in house
T2 sequence (P24224 whole entry): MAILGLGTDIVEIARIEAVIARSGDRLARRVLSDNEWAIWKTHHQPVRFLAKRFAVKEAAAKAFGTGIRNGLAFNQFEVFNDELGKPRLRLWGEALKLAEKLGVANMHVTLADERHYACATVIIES

## CC(C)c1cc(Cl)ccc1-c1cc(-c2nnn[nH]2)c(-c2ccc(Cl)cc2C(C)C)s1 [DNM0547]
[1]
  MIC: 2 µg/mL (≈ 4.37 µM)
[2]; Acetyl CoA 0.06 mM
  V(+Inhibitor) Mean: 20.55 nM/min
  V(+Inhibitor): 19.96 nM/min and 23.46 nM/min and 18.23 nM/min
[2]; Acetyl CoA 0.24 mM
  V(+Inhibitor) Mean: 101.48 nM/min
  V(+Inhibitor): 97.72 nM/min and 105.12 nM/min and 101.61 nM/min
[2]; Acetyl CoA 0.48 mM
  V(+Inhibitor) Mean: 125.64 nM/min
  V(+Inhibitor): 122.32 nM/min and 124.81 nM/min and 129.79 nM/min
[2]; Acetyl CoA […]
  V(+Inhibitor) Mean: 57.60 nM/min
[3]; 2% cream, 18 days of exposure of the rabbit ear wound
  toxicity to dermal cells, histopathology: no indication of toxicity
[3]; 2% cream, 18 days, compared to 2% mupirocin or cream control
  erythema, edema, angiogenesis and epithelization scores: improved
[3]; Suppl Fig 7, score per wound
  Angiogenesis: 1 and 2
  Edema: 1 and 2
  Erythema: 1 and 2
  Granulation: 2 and 1
  Inflammation: 2 and 3 and 4
[4]
  pIC50: 5.25
[4]; Drug Conc 1 uM
  AcpS rate nM/min, Mean: 7.81 nM/min
  AcpS rate: 7.96 nM/min and 7.81 nM/min and 7.64 nM/min
[4]; Drug Conc 2 uM
  AcpS rate nM/min, Mean: 6.86 nM/min
  AcpS rate: 6.91 nM/min and 7.01 nM/min and 6.66 nM/min
[4]; Drug Conc 4 uM
  AcpS rate nM/min, Mean: 4.72 nM/min
  AcpS rate: 4.74 nM/min and 4.76 nM/min and 4.66 nM/min
[4]; Drug Conc 8 uM
  AcpS rate nM/min, Mean: 3.23 nM/min
  AcpS rate: 2.93 nM/min and 3.30 nM/min and 3.44 nM/min
[4]; Drug Conc 16 uM
  AcpS rate nM/min, Mean: 2.83 nM/min
  AcpS rate: 3.20 nM/min and 2.39 nM/min and 2.90 nM/min
[4]; Drug Conc 32 uM
  AcpS rate nM/min, Mean: 1.69 nM/min
  AcpS rate: 1.65 nM/min and 1.74 nM/min and 1.68 nM/min
[4]; Drug Conc 64 uM
  AcpS rate nM/min, Mean: 1.60 nM/min
  AcpS rate: 1.52 nM/min and 1.63 nM/min and 1.65 nM/min
[4]; Drug Conc 128 uM
  AcpS rate nM/min, Mean: 1.34 nM/min
  AcpS rate: 1.38 nM/min and 1.44 nM/min and 1.20 nM/min
[4]; read-out: % of untreated, Suppl Fig 3, [AcpS_H108A] 5nM, Drug Conc 1 uM, replicates
  remaining activity at 1 µM: 105%
[4]; read-out: % of untreated, Suppl Fig 3, [AcpS_H108A] 5nM, Drug Conc 2 uM, replicates
  remaining activity at 2 µM: 90.9%
[4]; read-out: % of untreated, Suppl Fig 3, [AcpS_H108A] 5nM, Drug Conc 4 uM, replicates
  remaining activity at 4 µM: 62.4%
[4]; read-out: % of untreated, Suppl Fig 3, [AcpS_H108A] 5nM, Drug Conc 8 uM, replicates
  remaining activity at 8 µM: 38.5%
[4]; read-out: % of untreated, Suppl Fig 3, [AcpS_H108A] 5nM, Drug Conc 16 uM, replicates
  remaining activity at 16 µM: 42.1%
[4]; read-out: % of untreated, Suppl Fig 3, [AcpS_H108A] 5nM, Drug Conc 32 uM, replicates
  remaining activity at 32 µM: 21.7%
[4]; read-out: % of untreated, Suppl Fig 3, [AcpS_H108A] 5nM, Drug Conc 64 uM, replicates
  remaining activity at 64 µM: 20%
[4]; read-out: % of untreated, Suppl Fig 3, [AcpS_H108A] 5nM, Drug Conc 128 uM, replicates
  remaining activity at 128 µM: 18.1%
[5]
  pIC50: 5.29
[5]; Drug Conc 1 uM
  AcpS rate nM/min, Mean: 40.51 nM/min
  AcpS rate: 41.16 nM/min and 37.27 nM/min and 43.10 nM/min
[5]; Drug Conc 2 uM
  AcpS rate nM/min, Mean: 36.72 nM/min
  AcpS rate: 35.90 nM/min and 37.65 nM/min and 36.61 nM/min
[5]; Drug Conc 4 uM
  AcpS rate nM/min, Mean: 24.24 nM/min
  AcpS rate: 27.20 nM/min and 22.45 nM/min and 23.08 nM/min
[5]; Drug Conc 8 uM
  AcpS rate nM/min, Mean: 14.81 nM/min
  AcpS rate: 14.57 nM/min and 15.17 nM/min and 14.69 nM/min
[5]; Drug Conc 16 uM
  AcpS rate nM/min, Mean: 6.58 nM/min
  AcpS rate: 5.73 nM/min and 8.26 nM/min and 5.76 nM/min
[5]; Drug Conc 32 uM
  AcpS rate nM/min, Mean: 2.47 nM/min
  AcpS rate: 2.50 nM/min and 2.59 nM/min and 2.33 nM/min
[5]; Drug Conc 64 uM
  AcpS rate nM/min, Mean: 1.94 nM/min
  AcpS rate: 1.85 nM/min and 1.95 nM/min and 2.00 nM/min
[5]; Drug Conc 128 uM
  AcpS rate nM/min, Mean: 1.59 nM/min
  AcpS rate: 1.43 nM/min and 1.51 nM/min and 1.82 nM/min
[5]; read-out: % of untreated, Suppl Fig 3, [AcpS_WT] 5 nM, Drug Conc 1 uM, replicates
  remaining activity at 1 µM: 99.1%
[5]; read-out: % of untreated, Suppl Fig 3, [AcpS_WT] 5 nM, Drug Conc 2 uM, replicates
  remaining activity at 2 µM: 86.4%
[5]; read-out: % of untreated, Suppl Fig 3, [AcpS_WT] 5 nM, Drug Conc 4 uM, replicates
  remaining activity at 4 µM: 65.5%
[5]; read-out: % of untreated, Suppl Fig 3, [AcpS_WT] 5 nM, Drug Conc 8 uM, replicates
  remaining activity at 8 µM: 35.1%
[5]; read-out: % of untreated, Suppl Fig 3, [AcpS_WT] 5 nM, Drug Conc 16 uM, replicates
  remaining activity at 16 µM: 13.8%
[5]; read-out: % of untreated, Suppl Fig 3, [AcpS_WT] 5 nM, Drug Conc 32 uM, replicates
  remaining activity at 32 µM: 6.02%
[5]; read-out: % of untreated, Suppl Fig 3, [AcpS_WT] 5 nM, Drug Conc 64 uM, replicates
  remaining activity at 64 µM: 4.46%
[5]; read-out: % of untreated, Suppl Fig 3, [AcpS_WT] 5 nM, Drug Conc 128 uM, replicates
  remaining activity at 128 µM: 3.45%
